What was measured:
293T HEK cells = test: Polymerized tubulin fraction in cells, western blot anti-α-tubulin; assay type: cell-based
Description: […] The treated cells were rinsed twice in PBS, lyzed on plates with 250 μl of a microtubule-stabilizing buffer (20 mM Tris-HCl, pH 6.8, 140 mM NaCl, 0.5 % Nonidet P-40, 1 mM MgCl2, 2 mM EGTA, 4 μg/ml Taxol, protease inhibitors cocktail), scraped and transferred into a 1.5 ml microcentrifuge tube. Each plate was rinsed with a second 250 μl of lysis buffer, and the cell lysates were pooled. The lysis occurred for 20 minutes at room temperature. The microcentrifuge tubes containing 500 μl of lyzed cells contents were briefly mixed and then centrifuged at 14,000 rpm for 10 minutes at 4° C. Supernatants containing soluble tubulin were carefully separated from pellets containing polymerized tubulin and placed in a separate tube. The pellets were quickly rinsed with additional 20 μl of lysis buffer and resuspended in 125 μl of water. […] The concentration of proteins in the supernatants was measured by spectrophotometry at 595 nm (Bradford method). Using these soluble tubulin concentration values, 60 μg of the polymerized tubulin fractions were run on a 10% acrylamide gel (SDS-PAGE system) and transferred on a nitrocellulose membrane (Biorad) that was incubated with an anti-a-tubulin (Sigma) diluted 1/2000. Since TCTP overexpression lead to a decrease of OP18 phosphorylation, and consequently, contribute to the maintenance of OP18 in its active state, it was hypothesized that TCTP overexpression would induce the microtubule depolymerization. To confirm this hypothesis, an assay that enables the isolation and monitoring of the tubulin in a microtubule polymerized state only, but not in a free soluble state, was performed. Briefly, after lysis of cells in a hypotonic buffer containing low dose of Taxol (a microtubule stabilizing agent) and a centrifugation, the polymerized fraction of tubulin was preserved and purified. Then, the amount of polymerized tubulin in cells was monitored by western blot using an anti-α-tubulin antibody.

[1] = system: OP18 phosphorylation in 293 HEK cells; test: OP18 phosphorylation state, native PAGE and immunoblot; assay type: cell-based; conditions: nocodazole 250 ng/ml, control cells
Description: Transfection, preparation of native OP18 enriched extracts, and analysis of OP18 phosphorylation levels. 293 T cells were transfected by the standard calcium phosphate method, with the following constructs: pEYFP (Clontech, BD) (negative control), pEYFP-TCTP wide type (WT) or the mutant pEYFP-TCTP S46A/S64A. Twenty four hours after the transfection, the cells were treated with nocodazole (250 ng/ml) for 0 hour, 1 hour, 2 hours, 4 hours and 8 hours, and rinsed twice in PBS. The pellets were lyzed with 3-5 volumes of lysis buffer (50 mM Tris-HCl, pH 7.5, 250 mM NaCl, 10 mM EDTA, 1% Nonidet P-40, protease inhibitors cocktail and phosphatases inhibitors (10 mM sodium orthovanadate, 10 mM natrium fluoride (NAF)) on ice for 20 minutes, and centrifuged for 10 minutes at 14,000 rpm at 4° C. The supernatants were carefully removed and stored on ice while measuring their concentration of proteins by spectrophotometry at 595 nm (Bradford method). To enrich the concentration of OP18 in the extracts, 1.2 mg of each total extract was boiled at 75° C. for 7 minutes, put on ice for 1 minute, and centrifuged for 10 minutes at 14,000 rpm at 4° C. Then, the supernatants were precipitated in 5-6 volumes of 1% sucrose in methanol O/N at −20° C. […]

COC(=O)Nc1nc2ccc(C(=O)c3cccs3)cc2[nH]1 [nocodazole]
amount of polymerized tubulin (293T HEK cells; 16 hours of treatment, compared to untreated cells): no polymerized tubulin was present
tubulin polymerization during nocodazole treatment (293T HEK cells; nocodazole 250 ng/ml, increasing time, transfected 293T HEK cells): decreased proportionally to the time length of treatment
time from which OP18 with three (3-P) and four (4-P) phosphorylated sites is detectable [1]: ≥ 2 h

From patent US20060140970A1, “Proteic binding partners of TCTP and methods of modulating tumor reversion or cell apoptosis” (priority 2003, published 2006)
